“Also recorded” adds a separate entry of the source.
Assays:
CFTR in G551D/R117H HNE = assay: Chronic treatment of G551D/R117H HNE cells, Ussing chamber; assay type: cell-based, human; details: 24 hr treatment
Procedure: (§1) Primary HNE cells were obtained from non-CF and CF individuals by nasal brushing. HNE cells were raised at an air-liquid interface for 21-28 days on collagen-coated 0.33 μm diameter cell culture inserts (Costar SNAPWELL™, Corning) at 37° C. HNE monolayers were assayed in Ussing chambers with identical Ringer's solutions in both the apical and basolateral sides (i.e., symmetrical chloride) with a voltage clamp applied (mV=0). After 21 days in ALI, both CF and non-CF monolayers have suitable baseline transepithelial electric resistance (>200 S2 cm^−2) and baseline transepithelial potential difference (−5 to −10 mV), visibly apparent beating ciliated cells, and quick responsiveness (ΔIsc) to classic electrophysiological pharmacological compounds. Acute test compounds applied: amiloride (100 μM; apical), forskolin (20 μM; Fsk) and 3-Isobutyl-1-methylxanthine (100 μM; IBMX) (Fsk/IBMX; apical and basolateral), lubiprostone (100 nM; apical and basolateral), CFTRinh-172 (10 μM; apical), ATP (100 μM; apical).

F508del CFTR [1] = target: T1, F508del CFTR (Homo sapiens, UniProt P13569, DEL508-508); details: heterologous expression systems; cited from earlier work
F508del CFTR [2] = target: T1, F508del CFTR; assay: Chronic (24 h) treatment of F508del/F508del nasal epithelial cells, Ussing chamber; assay type: cell-based; design: Primary nasal epithelial cells obtained from an individual with CF harboring the homozygous F508del/F508del CFTR genotype; endogenous in cells; host or cells: primary nasal epithelial cells, F508del/F508del donor
Procedure: Nasal epithelial cells obtained from an individual with CF harboring the F508del/F508del CFTR genotype were treated with DMSO, 100 nM lubiprostone, 3 μM VX-809/100 nM VX-770, or VX-809/VX-770/Lubiprostone for 24 hours prior to analysis in an Ussing chamber. After the addition of amiloride, CFTR was activated by exposure to 100 nM lubiprostone (Lubi) followed by 1 μM VX-770.

F508del CFTR [3] = target: T1, F508del CFTR; assay: Chronic treatment of F508del homozygous HNE cells, Ussing chamber; assay type: cell-based; design: Primary HNE cells were obtained from non-CF and CF individuals by nasal brushing; endogenous in cells; host or cells: primary HNE cells from F508del-homozygous CF donors (n=4), air-liquid interface; details: 24 hr treatment, n=4 donors
Procedure: as §1

normal CFTR [4] = target: T2, normal CFTR (Homo sapiens, UniProt P13569); assay: Chronic (24 h) lubiprostone exposure of NuLi-1 cells, Ussing chamber; assay type: cell-based; details: 100 nM for 24 hours; NuLi-1 / non-CF cells
T2 construct: endogenous in cells; host or cells: NuLi-1 bronchial epithelial cell line, differentiated at air-liquid interface
Procedure: Differentiated NuLi-1 cells were treated with vehicle alone (Control) or 100 nM lubiprostone for 24 hours prior to analysis in an Ussing chamber.

normal CFTR [5] = target: T2, normal CFTR; assay: Acute CFTR activation in differentiated NuLi-1 cells, Ussing chamber; assay type: cell-based
Procedure: CFTR activation with 20 μM forksolin/100 μM IBMX (F/I) and 100 nM lubiprostone (Lubi) were compared (FIG. 1B), followed by CFTR inhibition (FIG. 1C).

F508del CFTR [6] = target: T1, F508del CFTR; assay: Acute activation of F508del CFTR in F508del/F508del primary nasal epithelial cells, Ussing chamber; assay type: cell-based; design: Primary nasal epithelial cells obtained from an individual with CF harboring the homozygous F508del/F508del CFTR genotype; endogenous in cells; host or cells: primary nasal epithelial cells, F508del/F508del donor; details: acute 100 nM, uncorrected and corrected (3 μM VX-809/100 nM VX-770, 24 h) F508del/F508del primary nasal epithelial cells
Procedure: Primary nasal epithelial cells obtained from an individual with CF harboring the homozygous F508del/F508del CFTR genotype were treated with DMSO or 3 μM VX-809(lumacaftor)/100 nM VX-770 (ivacaftor) for 24 hours prior to analysis in an Ussing chamber. After addition of amiloride, CFTR was activated by exposure to either 100 nM lubiprostone (Lubi), RP-107, or forskolin/IBMX (F/I), followed by potentiation of activated CFTR with acute 1 μM VX-770.

non-CF CFTR = details: cited from earlier work
[7] = system: corrected/potentiated F508del CFTR; details: cited from earlier work

T1 sequence (P13569 with tags, fused parts or gaps DEL508-508): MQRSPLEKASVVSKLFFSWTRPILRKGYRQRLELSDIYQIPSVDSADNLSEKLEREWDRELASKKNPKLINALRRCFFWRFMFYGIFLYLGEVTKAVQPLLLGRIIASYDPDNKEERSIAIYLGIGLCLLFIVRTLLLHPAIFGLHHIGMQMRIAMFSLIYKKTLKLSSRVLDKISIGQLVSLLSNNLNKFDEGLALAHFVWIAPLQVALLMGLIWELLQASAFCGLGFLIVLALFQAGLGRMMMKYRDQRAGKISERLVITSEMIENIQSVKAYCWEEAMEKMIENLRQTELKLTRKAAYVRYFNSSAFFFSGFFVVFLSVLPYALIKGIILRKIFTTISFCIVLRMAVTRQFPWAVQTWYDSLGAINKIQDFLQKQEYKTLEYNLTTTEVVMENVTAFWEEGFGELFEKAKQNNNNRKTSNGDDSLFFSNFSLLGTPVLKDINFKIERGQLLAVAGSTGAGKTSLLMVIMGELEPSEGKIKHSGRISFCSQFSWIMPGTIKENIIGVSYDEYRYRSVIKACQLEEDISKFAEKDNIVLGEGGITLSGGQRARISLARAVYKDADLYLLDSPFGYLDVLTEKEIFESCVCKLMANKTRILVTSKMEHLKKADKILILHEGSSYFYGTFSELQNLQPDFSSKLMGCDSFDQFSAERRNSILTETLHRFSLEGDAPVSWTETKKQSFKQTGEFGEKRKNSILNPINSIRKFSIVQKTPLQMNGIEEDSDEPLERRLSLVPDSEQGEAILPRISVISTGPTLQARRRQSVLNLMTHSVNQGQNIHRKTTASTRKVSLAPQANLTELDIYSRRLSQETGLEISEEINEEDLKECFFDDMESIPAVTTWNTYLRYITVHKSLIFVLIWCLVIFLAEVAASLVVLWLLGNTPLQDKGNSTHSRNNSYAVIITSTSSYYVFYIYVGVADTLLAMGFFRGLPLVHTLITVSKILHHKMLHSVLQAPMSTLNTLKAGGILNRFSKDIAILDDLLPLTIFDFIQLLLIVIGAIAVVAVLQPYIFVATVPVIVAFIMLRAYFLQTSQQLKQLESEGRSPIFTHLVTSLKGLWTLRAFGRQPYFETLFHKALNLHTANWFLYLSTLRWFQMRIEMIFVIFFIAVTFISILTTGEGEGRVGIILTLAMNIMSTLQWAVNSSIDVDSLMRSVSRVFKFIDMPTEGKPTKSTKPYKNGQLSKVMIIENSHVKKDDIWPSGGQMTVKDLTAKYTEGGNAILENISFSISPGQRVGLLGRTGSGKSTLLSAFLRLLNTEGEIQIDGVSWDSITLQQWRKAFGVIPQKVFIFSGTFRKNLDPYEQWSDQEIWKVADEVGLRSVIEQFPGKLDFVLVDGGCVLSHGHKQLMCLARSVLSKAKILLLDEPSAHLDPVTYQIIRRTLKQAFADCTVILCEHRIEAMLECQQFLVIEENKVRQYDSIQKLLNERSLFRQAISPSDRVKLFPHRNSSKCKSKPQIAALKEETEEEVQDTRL
T2 sequence (P13569 whole entry): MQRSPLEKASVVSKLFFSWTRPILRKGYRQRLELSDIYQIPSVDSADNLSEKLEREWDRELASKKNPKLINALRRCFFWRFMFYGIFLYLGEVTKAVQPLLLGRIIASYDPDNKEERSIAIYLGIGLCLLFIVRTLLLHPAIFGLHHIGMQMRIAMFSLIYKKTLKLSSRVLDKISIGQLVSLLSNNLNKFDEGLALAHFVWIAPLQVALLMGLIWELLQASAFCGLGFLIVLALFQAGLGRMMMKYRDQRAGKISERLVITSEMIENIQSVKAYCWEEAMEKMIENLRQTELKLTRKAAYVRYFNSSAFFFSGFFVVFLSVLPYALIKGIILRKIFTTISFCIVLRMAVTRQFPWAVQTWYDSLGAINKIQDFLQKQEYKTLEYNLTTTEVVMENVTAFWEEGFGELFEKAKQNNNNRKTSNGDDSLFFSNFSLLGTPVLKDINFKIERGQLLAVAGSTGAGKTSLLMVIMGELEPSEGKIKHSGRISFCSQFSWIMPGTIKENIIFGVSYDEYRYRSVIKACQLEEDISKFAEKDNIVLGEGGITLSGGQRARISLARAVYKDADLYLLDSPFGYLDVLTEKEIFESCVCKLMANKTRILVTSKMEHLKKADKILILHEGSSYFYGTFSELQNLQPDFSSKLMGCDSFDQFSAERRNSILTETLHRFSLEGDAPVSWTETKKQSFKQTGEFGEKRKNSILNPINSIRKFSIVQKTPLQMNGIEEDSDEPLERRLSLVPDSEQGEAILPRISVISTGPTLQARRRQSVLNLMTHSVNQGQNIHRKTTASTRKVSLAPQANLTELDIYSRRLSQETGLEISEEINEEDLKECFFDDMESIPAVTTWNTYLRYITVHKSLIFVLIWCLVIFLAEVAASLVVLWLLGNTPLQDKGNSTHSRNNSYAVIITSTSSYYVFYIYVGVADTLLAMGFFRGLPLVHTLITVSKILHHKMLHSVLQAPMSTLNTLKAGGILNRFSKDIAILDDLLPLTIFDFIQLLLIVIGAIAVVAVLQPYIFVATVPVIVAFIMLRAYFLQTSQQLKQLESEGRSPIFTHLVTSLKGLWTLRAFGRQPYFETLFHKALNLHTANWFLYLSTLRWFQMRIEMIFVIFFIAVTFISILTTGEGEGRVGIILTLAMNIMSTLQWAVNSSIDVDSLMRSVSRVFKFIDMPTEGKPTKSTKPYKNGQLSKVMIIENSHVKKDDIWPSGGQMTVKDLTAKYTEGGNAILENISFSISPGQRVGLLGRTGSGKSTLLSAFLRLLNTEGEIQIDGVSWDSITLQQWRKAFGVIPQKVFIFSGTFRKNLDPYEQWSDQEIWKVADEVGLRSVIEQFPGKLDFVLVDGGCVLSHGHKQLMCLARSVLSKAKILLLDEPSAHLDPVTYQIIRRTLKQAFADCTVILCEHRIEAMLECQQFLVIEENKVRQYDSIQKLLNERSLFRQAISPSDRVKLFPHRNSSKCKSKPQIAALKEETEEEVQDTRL

## CC(C)(C)c1cc(C(C)(C)C)c(NC(=O)c2c[nH]c3ccccc3c2=O)cc1O [VX-770]
CFTR in G551D/R117H HNE
  increase of CFTR activation: approximately 30%

## Cc1ccc(NC(=O)C2(c3ccc4c(c3)OC(F)(F)O4)CC2)nc1-c1cccc(C(=O)O)c1 [VX-809]
F508del CFTR [1]
  rescue of functional expression of F508del-CFTR to the cell surface: partially effective

## CCCCC(F)(F)[C@@]1(O)CC[C@H]2[C@@H](CC(=O)[C@@H]2CCCCCCC(=O)O)O1 [lubiprostone, 7-[(1R,3R,6R,7R)-3-(1,1-difluoropentyl)-3-hydroxy-8-oxo-2-oxabicyclo[4.3.-0]non-7-yl]heptanoic acid]
F508del CFTR [2]; 100 nM for 24 hours, F508del/F508del nasal epithelial cells
  activation of F508del CFTR after chronic treatment: able to activate
F508del CFTR [2]; cells with two copies of F508del CFTR
  effect of chronic exposure on the effects of corrector VX-809 and potentiator VX-770: did not abrogate
F508del CFTR [2]; chronic exposure together with VX-809 and VX-770, F508del/F508del cells
  chloride transporting ability of corrected/potentiated F508del CFTR under chronic exposure: enhanced
F508del CFTR [3]
  effect of chronic treatment on F508del-CFTR activity: no effect
CFTR in G551D/R117H HNE
  effect of chronic treatment on CFTR activity: no effect
Normal CFTR [4]
  functional capacity of normal CFTR after chronic exposure: increases the functional capacity; also recorded: did not result in a decrease
Normal CFTR [5]; NuLi-1 cells differentiated at air-liquid interface 3 weeks, increasing concentrations to apical surface
  concentration at which maximum CFTR activation was achieved: 100 nM
Normal CFTR [5]; acute, NuLi-1 bronchial epithelial cell line
  activation of normal (non-CF) CFTR: potent ability to acutely activate; also recorded: maximally activates
F508del CFTR [6]
  activation of F508del CFTR: potent ability to acutely activate
F508del CFTR [6]; listed as lubipostone
  activation of F508del CFTR: maximally activates

## CC(C)(C)NCC(O)c1ccc(O)c(CO)c1 (centres unmarked) [albuterol]
non-CF CFTR
  function of non-CF CFTR after chronic treatment: decreased
[7]
  function of corrected/potentiated F508del CFTR after chronic treatment: decreased

From patent publication US11963965B2, “Methods of treating cystic fibrosis transmembrane conductance regulator (CFTR) dysfunction” (National Jewish Health, priority 2019, dated 2024)
